Reference: the supplement of paper PMC11208160

Test: recombinant barcode read abundance after kanamycin selection (control-corrected) (log10(CPM+1)); higher = more efficient recombination; sequences stand for … in AGTGCAGAGAAAATCGGCCAGTTTTCTCTGCCTGCAGTCCGCATGCCGT…AGATTTATGCAGCGGACTGCCTTTCTCCCAAAGTGATAAACCGGACAGTATCATGGACCGGTTTTCCCGGTAATCCGTATTTGCAAGGTTGGTTTCACT; site = the 11-nt target
How it was run: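 This pooled E. coli screen matched targets with IS621 bridge RNA target-binding loops. Plating was done in duplicate on chloramphenicol/ampicillin LB agar as a control and on chloramphenicol/ampicillin/kanamycin plus 0.1 mM IPTG. Recombination efficiency reflects barcode counts at recombinant junctions as counts per million, averaged and control-corrected. The figures are log10(CPM+1).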
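Note: IS621 recombinase and bridge RNA in Escherichia coli cells.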

| Sequence | recombinant barcode read abundance (log10) |
| --- | --- |
| GGGTTCACTTGGGTTCTAACCTGTTGCCG (site GGGTTCACTCG) | 1.43 |
| GGGTTGCCTTGGGTTCTAACCTGTTGCCT (site GAGTTGCCTAG) | 0.945 |
| GGGTTGCCTTGGGTTCTAACCTGTTGCCT (site GCGTTGCCTAG) | 1.1 |
| GGGTTGCCTTGGGTTCTAACCTGTTGCCT (site GGGTTGCCTAG) | 1.46 |
| GGGTTGCCTTGGGTTCTAACCTGTTGCCT (site GTGTTGCCTAG) | 0.144 |
| GGTAAGACTTGGGTTCTAACCTGTTGCCT (site GGAAAGACTAG) | 0.31 |
| GGTAAGACTTGGGTTCTAACCTGTTGCCT (site GGCAAGACTAG) | 0.318 |
| GGTAAGACTTGGGTTCTAACCTGTTGCCT (site GGGAAGACTAG) | 0.197 |
| GGTAAGACTTGGGTTCTAACCTGTTGCCT (site GGTAAGACTAG) | 1.47 |
| GGTATGTCTTGGGTTCTAACCTGTTGCTG (site CGAATGTCTCA) | 0.119 |
| GGTATGTCTTGGGTTCTAACCTGTTGCTG (site GGTATGTCTCA) | 0.857 |
| GGTATGTCTTGGGTTCTAACCTGTTGCTT (site GCTATGTCTAG) | 0.0865 |
| GGTATGTCTTGGGTTCTAACCTGTTGCTT (site GGTATGTCTAA) | 0.641 |
| GGTCAACCTTGGGTTCTAACCTGTTGCCT (site GATCAACCTAG) | 0.394 |
| GGTCAACCTTGGGTTCTAACCTGTTGCCT (site GCTCAACCTAG) | 0.172 |
| GGTCAACCTTGGGTTCTAACCTGTTGCCT (site GGTCAACCTAG) | 1.14 |
| GGTCAACCTTGGGTTCTAACCTGTTGCCT (site GTTCAACCTAG) | 0.486 |
| GGTCAGTCTTGGGTTCTAACCTGTTGCGG (site GGTCAGTCTCC) | 1.84 |

| Sequence | recombinant barcode read abundance (log10) |
| --- | --- |
| GGTCAGTCTTGGGTTCTAACCTGTTGCGG (site TAGTTTACTTA) | 0.0859 |
| GGTCATGCTTGGGTTCTAACCTGTTGCCT (site GGTCATACTAG) | 0.169 |
| GGTCATGCTTGGGTTCTAACCTGTTGCCT (site GGTCATCCTAG) | 0.131 |
| GGTCATGCTTGGGTTCTAACCTGTTGCCT (site GGTCATGCTAG) | 1.11 |
| GGTCATGCTTGGGTTCTAACCTGTTGCCT (site GGTCATTCTAG) | 0.0304 |
| GGTCCACCTTGGGTTCTAACCTGTTGCCT (site AGTCCACCTAG) | 0.386 |
| GGTCCACCTTGGGTTCTAACCTGTTGCCT (site CGTCCACCTAG) | 0.181 |
| GGTCCACCTTGGGTTCTAACCTGTTGCCT (site GGTCCACCTAG) | 1.07 |
| GGTCCACCTTGGGTTCTAACCTGTTGCCT (site TGTCCACCTAG) | 0.108 |
| GGTCCCACTTGGGTTCTAACCTGTTGCCT (site GGGCTCACTAG) | 0.0761 |
| GGTCCCACTTGGGTTCTAACCTGTTGCCT (site GGTCCCACTAG) | 0.943 |
| GGTCCGTCTTGGGTTCTAACCTGTTGCAT (site AGTCGGTCTAT) | 0.127 |
| GGTCCGTCTTGGGTTCTAACCTGTTGCAT (site GGTCCGTCTAT) | 1.16 |
| GGTCCTACTTGGGTTCTAACCTGTTGCCT (site GATCCTACTAG) | 0.241 |
| GGTCCTACTTGGGTTCTAACCTGTTGCCT (site GCTCCTACTAG) | 0.0585 |
| GGTCCTACTTGGGTTCTAACCTGTTGCCT (site GGTCCTACTAG) | 0.355 |
| GGTCCTACTTGGGTTCTAACCTGTTGCCT (site GTTCCTACTAG) | 0.187 |
| GGTCGAACTTGGGTTCTAACCTGTTGCCT (site GGTCAAACTAG) | 0.107 |
